Measured values from patent publication EP3981391B1, “ORAL PREPARATION HAVING IMPROVED DISSOLUTION RATE AND DISINTEGRATION PROPERTIES FOR NATURAL SUBSTANCE EXTRACT” (Green Cross WellBeing Corporation, priority 2019, dated 2020).

Test: Solubility of processed ginseng extract (ginsenosides Rg3 and Rh2 by HPLC) in solvents and dissolution media
Assay type: physicochemical
Procedure: Processed ginseng extracts were used as natural product extracts of the present invention, and the processed ginseng extracts were prepared by the methods disclosed in Korean Patent Nos. 1595426 and 1966117. Among these, a processed ginseng extract containing 13 wt% of ginsenoside Rg3 and 7 wt% of ginsenoside Rh2 was used.
To investigate the solubility of the processed ginseng extract of the present invention, isopropanol, ethanol, water, and a pH 1.2 buffer, a pH 4.0 buffer, and a pH 6.8 buffer, which are dissolution media disclosed in the Korean Pharmacopoeia, were used as solvents. After 500 mg of the processed ginseng extract was added to 2 g of each solvent, stirring was performed at 50 rpm and 37°C for 18 hours, thereby obtaining each sample. Thereafter, a filtrate obtained by filtration of each sample through a 0.45-µm polyvinylidene fluoride (PVDF) syringe filter was analyzed by high performance liquid chromatography (HPLC) to investigate the solubility of ginsenosides Rg3 and Rh2 contained in the processed ginseng extract. The results are shown in Table 1 below. • HPLC Conditions were as follows: • Column: C18, 1.8 µm, 2.1x50 mm • Column Temperature: 50°C • Detector: UV 203 nm • Flow rate: 0.6 ml/min • Amount of injection: 2 µl • Run time: About 14 min • Mobile phase: distilled water: acetonitrile =57:43 (v/v) TABLE 1

[1] = Ethanol, 500 mg processed ginseng extract in 2 g solvent, 50 rpm, 37°C, 18 hours
[2] = Isopropanol, 500 mg processed ginseng extract in 2 g solvent, 50 rpm, 37°C, 18 hours
[3] = Water, 500 mg processed ginseng extract in 2 g solvent, 50 rpm, 37°C, 18 hours
[4] = pH 1.2 buffer, 500 mg processed ginseng extract in 2 g solvent, 50 rpm, 37°C, 18 hours
[5] = pH 4.0 buffer, 500 mg processed ginseng extract in 2 g solvent, 50 rpm, 37°C, 18 hours
[6] = pH 6.8 buffer, 500 mg processed ginseng extract in 2 g solvent, 50 rpm, 37°C, 18 hours
[7] = in water, a pH 1.2 buffer, or a pH 4.0 buffer

| Compound | solubility [1] [mg/g] | solubility [2] [mg/g] | solubility [3] [mg/g] | solubility [4] [mg/g] | solubility [5] [mg/g] | solubility [6] [mg/g] | solubility [7] |
| --- | --- | --- | --- | --- | --- | --- | --- |
| CC(C)=CCC[C@](C)(O)[C@H]1CC[C@]2(C)[C@@H]1[C@H](O)C[C@@H]1[C@@]3(C)CC[C@H](O[C@@H]4O[C@H](CO)[C@@H](O)[C@H](O)[C@H]4O[C@@H]4O[C@H](CO)[C@@H](O)[C@H](O)[C@H]4O)C(C)(C)[C@@H]3CC[C@]12C [Ginsenoside Rg3 R-form, Ginsenoside Rg3] | 5.45 | 4.72 | 0.05 | 0.01 | 0.05 | 0.31 |  |
| CC(C)=CCC[C@](C)(O)[C@H]1CC[C@]2(C)[C@@H]1[C@H](O)C[C@@H]1[C@@]3(C)CC[C@H](O[C@@H]4O[C@H](CO)[C@@H](O)[C@H](O)[C@H]4O)C(C)(C)[C@@H]3CC[C@]12C [ginsenoside Rh2] |  |  |  |  |  |  | less than 0.3 mg/g |
| CC(C)=CCC[C@](C)(O)[C@H]1CC[C@]2(C)[C@@H]1[C@H](O)C[C@@H]1[C@@]3(C)CC[C@H](O[C@@H]4O[C@H](CO)[C@@H](O)[C@H](O)[C@H]4O[C@@H]4O[C@H](CO)[C@@H](O)[C@H](O)[C@H]4O)C(C)(C)[C@@H]3CC[C@]12C [ginsenoside Rg3] |  |  |  |  |  |  | less than 0.3 mg/g |
| CC(C)=CCC[C@](C)(O)[C@H]1CC[C@]2(C)[C@@H]1[C@H](O)C[C@@H]1[C@@]3(C)CC[C@H](O[C@@H]4O[C@H](CO)[C@@H](O)[C@H](O)[C@H]4O)C(C)(C)[C@@H]3CC[C@]12C [Ginsenoside Rh2 R-form, Ginsenoside Rh2] | 2.55 | 2.47 | 0.00 | 0.00 | 0.00 | 0.09 |  |
| CC(C)=CCC[C@](C)(O)[C@H]1CC[C@]2(C)[C@@H]1[C@H](O)C[C@@H]1[C@@]3(C)CC[C@H](O[C@@H]4O[C@H](CO)[C@@H](O)[C@H](O)[C@H]4O)C(C)(C)[C@@H]3CC[C@]12C [Ginsenoside Rh2 S-form, Ginsenoside Rh2] | 3.96 | 3.99 | 0.10 | 0.00 | 0.13 | 0.60 |  |
| CC(C)=CCC[C@](C)(O)[C@H]1CC[C@]2(C)[C@@H]1[C@H](O)C[C@@H]1[C@@]3(C)CC[C@H](O[C@@H]4O[C@H](CO)[C@@H](O)[C@H](O)[C@H]4O[C@@H]4O[C@H](CO)[C@@H](O)[C@H](O)[C@H]4O)C(C)(C)[C@@H]3CC[C@]12C [Ginsenoside Rg3 S-form, Ginsenoside Rg3] | 7.52 | 7.43 | 0.21 | 0.01 | 0.28 | 1.23 |  |
